Laboratory results from patent US11680264B2, “Methods of modulating melanosome pH and melanin level in cells” (Cornell University, priority 2016, dated 2023).

Columns and labels:
sAC^FF mouse melanocytes [1] = test: LysoSensor Yellow/Blue DND-160 organelle pH assay; type: cell-based; settings: 30 μM, 4 hours
Protocol: (§1) To determine the pH of the sAC^KO and sAC^FF melanocytes the pH-sensitive vital dye LysoSensor Yellow/Blue DND-160 (Bellono et al. Sci Rep., 6:26570 (2016)) was used. Briefly, cells were incubated with 1 μM LysoSensor DND-160 (Invitrogen) for 5 minutes at 37° C. Lysosensor was excited at 405 nm and its emission detected at 417-483 nm (W1) and 490-530 nm (W2). The ratio of emissions (W1/W2) in Lysosensor-stained puncta was assigned to a pH value based on a calibration curve generated for each experiment using solutions containing 125 mM KCl, 25 mM NaCl, 24 μM monensin, and varying concentrations of MES to adjust the pH to 4, 4.5, 5.0, 5.5, 6.0, 6.5, 7.0, 7.5. The fluorescence ratio was linear for pH 5.0-7.0.
as §1, with “The effect” for “To determine the pH”, “pharmacologic inhibition of sAC was examined using” for “the sAC^KO and sAC^FF melanocytes”, “vial” for “vital”, “assay, described above.” for “(Bellono et al. Sci Rep., 6:26570 (2016)) was used.”, “Briefly, cultured sAC^FF melanocytes were treated for 4 hours with 30 μM KH7, 30 μM LRE1, or control (untreated). The” for “Briefly,”

sAC^KO mouse melanocytes [2] = test: LysoSensor Yellow/Blue DND-160 organelle pH assay; type: cell-based; settings: 30 μM, 4 hours
Protocol: as §1
as §1, with “The effect” for “To determine the pH”, “pharmacologic inhibition of sAC was examined using” for “the sAC^KO and sAC^FF melanocytes”, “vial” for “vital”, “assay, described above.” for “(Bellono et al. Sci Rep., 6:26570 (2016)) was used.”, “Briefly, cultured sAC^FF melanocytes were treated for 4 hours with 30 μM KH7, 30 μM LRE1, or control (untreated). The” for “Briefly,”

sAC^FF mouse melanocytes [3] = test: DAMP melanosome pH assay (HMB45 co-staining); type: cell-based; settings: KH7 30 μM, 4 hours
Protocol: (§2) N-{3-[(2,4-dinitrophenyl)amino]propyl}-N-(3-aminopropyl)methylamine dihydrochloride (DAMP) is a weakly basic amine that is taken up in acidic organelles of live cells and which has been used to measure melanosome pH (Bin et al., PLOS One, 10(6):e0129273 (2015); Tabata et al., Cell Tissue Res., 332(3): 447-460 (2008)). Cells were cultured on sterile glass coverslips in 24-mm wells at 50×10^3 cells/coverslip. […] After permeabilization with 0.1% Triton X-100 in Buffer A at −20° C., the cells were labeled with the supplied anti-DNP antibody (Oxford Biomedical Research) according to kit protocol. Melanosomes were identified using the monoclonal antibody (anti-HMB45, 1:40, Santa Cruz Biotechnology). Fluorescence was detected after secondary staining with Alexa Fluor 546 donkey anti-goat IgG antibody (Invitrogen) and Alexa Fluor 647 donkey anti-mouse IgG antibody (Invitrogen). All quantitative analyses were performed using the Object Count tool in Nikon AR 4.60. For each image, the lower intensity threshold limit of each fluorescence channel was defined as the intensity of the dimmest punctum returned using the 3 points circle threshold tool. The upper intensity threshold limit was set to the maximum value. Equivalent diameter (EqDiameter) was restricted to 1.85-30.00 pixels. Circularity was restricted to 0.20-1.00. Mean fluorescence intensity was measured for all DAMP^+ puncta. Melanosomes were identified as HMB45^+ puncta. DAMP measurements were only recorded when colocalized with HMB45. Frequency distributions were generated for each sample from mean DAMP fluorescence intensity of DAMP^+ melanosomes. All analyses were performed on two replicate coverslips (n≥15 cells per coverslip). Melanosomes were first identified as TRP1^+ or tyrosinase^+ puncta. sAC^+ melanosomes were identified as R52^+ or R21^+ puncta colocalizing with TRP1^+ or tyrosinase^+ puncta. The degree of colocalization between sAC and melanosomes was calculated as the number of sAC+ melanosomes divided by the total number of melanosomes and expressed as a percentage.
(§3) The effect of pharmacologic inhibition of sAC was also measured using the DAMP assay described above. Briefly, Cells were cultured on sterile glass coverslips in 24-mm wells at 50×10^3 cells/coverslip and treated or not treated for 4 hours with 30 μM KH7 or LRE1. […] After permeabilization with 0.1% Triton X-100 in Buffer A at −20° C., the cells were labeled with the supplied anti-DNP antibody (Oxford Biomedical Research) according to kit protocol. Melanosomes were identified using the monoclonal antibody (anti-HMB45, 1:40, Santa Cruz Biotechnology). Fluorescence was detected after secondary staining with Alexa Fluor 546 donkey anti-goat IgG antibody (Invitrogen) and Alexa Fluor 647 donkey anti-mouse IgG antibody (Invitrogen). All images were acquired using a Zeiss LSM 880 and analyzed using NIS-Elements AR 4.60 (Nikon).

sAC^KO mouse melanocytes [4] = test: DAMP melanosome pH assay (HMB45 co-staining); type: cell-based; settings: 4 hours, KH7 30 μM, cAMP analogs 500 μM, ESI-09 10 μM, MSH 100 nM
Protocol: as §2, §3

human melanocytes = test: DAMP melanosome pH assay (HMB45 co-staining); type: cell-based; settings: 4 hours, KH7 30 μM, cAMP 500 μM, H89 10 μM, ESI-09 10 μM
Protocol: as §2
The effect of sAC inhibition on melanosome pH was also assessed in human melanocytes.

C3H/HeJ mice = test: Topical treatment of epilated back skin, hair pigmentation; type: in vivo, mouse
Protocol: Therefore, experiments were performed to determine whether inhibition of sAC in animals could alter hair pigmentation. Animal experiments were performed in accordance with approved Institutional Animal Care and Use Committee protocol at Weill Cornell Medicine. Age and gender matched C3H/HeJ mice (female, 7 weeks old) were purchased from The Jackson Laboratory. For the analysis of hair pigmentation, the upper and lower dorsum of each mouse were epilated using hair removal wax. 10 μl of KH7 (42 mg/ml in DMSO), LRE1 (28 mg/ml in DMSO) or DMSO (vehicle control) was topically applied onto the upper back and DMSO was applied to the lower back three times a day over two weeks. These mice were monitored for changes in coat color as the epilated hair grew back. Hair was removed from each treated area after 3 weeks to measure the length of the total hair, apical black tip and subapical agouti (pheomelanin) band under a stereo microscope. Mice were euthanized and the treated skin was submitted to a blinded animal pathologist for histological evaluation of the epidermis and hair follicles. This experiment was performed twice with 3-4 mice per cohort (total n=6-7)

[5] = topical on back, hair removed after 3 weeks

Compound: CC(Sc1nc2ccccc2[nH]1)C(=O)N/N=C/c1cc(Br)ccc1O (stereo not shown) [KH7]
- pH of LysoSensor-visualized organelles (sAC^FF mouse melanocytes [1]): induced an alkaline pH shift
- pH of LysoSensor-visualized organelles (sAC^KO mouse melanocytes [2]): had no effect
- HMB45 staining intensity (sAC^FF mouse melanocytes [3]; mouse melanocytes): had no effect
- melanosome pH (DAMP uptake at HMB45 positive melanosomes), substance alone (sAC^FF mouse melanocytes [3]; sAC^FF mouse melanocytes, cAMP 500 μM, H89 10 μM, PKI 10 μM, ESI-09 10 μM): reduction in DAMP uptake (alkaline shift in pH)
- melanosome pH (DAMP), substance alone (sAC^KO mouse melanocytes [4]): had no effect
- melanosome pH (DAMP), substance alone (human melanocytes): alkaline shift in melanosome pH
- eumelanin production in hair (microscopic examination) (C3H/HeJ mice; [5]): increase in eumelanin production
- length of the agouti (pheomelanin) band (C3H/HeJ mice; [5]): reduction in length of the agouti (pheomelanin) band
- histologic examination of treated skin (C3H/HeJ mice; topical on back, two weeks): did not reveal any pathological change to the hair follicles or epidermis
- colour of regrown hair versus vehicle control (C3H/HeJ mice; topical on epilated back, 10 μl KH7 42 mg/ml or LRE1 28 mg/ml in DMSO, three times a day over two weeks): visual darkening of regrown hair
